# Assays:
# Homo sapiens [1] = species: Homo sapiens; assay: The compound was tested in vitro for its inhibitory activity against U 46619-induced aggregation of washed human platelets.; format: functional
# Thromboxane-A synthase = target: T1, Thromboxane-A synthase (Homo sapiens, UniProt P24557); assay: The compound was tested in vitro for its inhibitory activity against thromboxane synthase A2 (TXA2)
# T1 sequence (P24557 whole entry): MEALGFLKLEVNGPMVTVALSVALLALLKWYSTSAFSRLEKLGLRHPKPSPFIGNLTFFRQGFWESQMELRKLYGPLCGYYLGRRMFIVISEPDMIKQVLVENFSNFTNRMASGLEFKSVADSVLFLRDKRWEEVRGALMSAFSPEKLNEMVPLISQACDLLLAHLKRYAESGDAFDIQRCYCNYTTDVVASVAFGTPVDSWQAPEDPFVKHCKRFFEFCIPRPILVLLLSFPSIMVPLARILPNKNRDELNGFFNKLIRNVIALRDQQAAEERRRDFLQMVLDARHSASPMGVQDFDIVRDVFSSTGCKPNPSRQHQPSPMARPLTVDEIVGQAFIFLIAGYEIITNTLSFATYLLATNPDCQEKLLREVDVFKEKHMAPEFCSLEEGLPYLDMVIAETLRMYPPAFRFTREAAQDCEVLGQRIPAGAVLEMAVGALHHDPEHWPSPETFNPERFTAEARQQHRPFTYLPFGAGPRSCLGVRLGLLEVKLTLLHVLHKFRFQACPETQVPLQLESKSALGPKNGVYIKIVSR
# Canis familiaris [2] = species: Canis familiaris; assay: The compound was tested in vitro for its inhibitory activity against U 46619-induced contraction of saphenous vein in dog.; format: functional; details: Canis lupus familiaris, read-out: pA2 (converted)
# Homo sapiens [3] = species: Homo sapiens; assay: The compound was tested in vitro for its inhibitory activity against U 46619-induced aggregation of human platelet rich plasma (PRP).; format: functional
# Canis familiaris [4] = species: Canis familiaris; assay: The compound was tested in vitro for its antagonistic activity against U 46619-induced contraction of saphenous vein in dog; agonist activity was observed at e-6 - e-7; details: Canis lupus familiaris, filed as agonist
# Canis familiaris [5] = species: Canis familiaris; details: Canis lupus familiaris; Saphenous vein; filed as agonist
Structure (SMILES),IC50 (Homo sapiens [1]) [nM],IC50 (Thromboxane-A synthase) [nM],Kb (Canis familiaris [2]) [nM],IC50 (Homo sapiens [3]) [nM],pA2 (Canis familiaris [4]),pA2 (Canis familiaris [5])
O=C(O)C(CCCCCCNS(=O)(=O)c1ccc(Cl)cc1)CCCCCc1cccnc1 (centres undefined),300,4,–,–,–,–
O=C(O)CCC(CCCCNS(=O)(=O)c1ccc(Cl)cc1)CCCc1cccnc1 (centres undefined),19,2,1.26,390,–,–
O=C(O)CCCCC(CCNS(=O)(=O)c1ccc(Cl)cc1)Cc1cccnc1 (centres undefined),117,14,11.7,370,–,–
O=C(O)CCCC(CCCNS(=O)(=O)c1ccc(Cl)cc1)CCc1cccnc1 (centres undefined),220,20,1.74,4600,–,–
O=C(O)CCCCCC(CNS(=O)(=O)c1ccc(Cl)cc1)c1cccnc1 (centres undefined),20,220,–,280,Agonist,–
O=C(O)CCCCCCC(NS(=O)(=O)c1ccc(Cl)cc1)c1cccnc1 (centres undefined),27,> 500,–,600,–,Agonist
O=C(O)CC(CCCCCNS(=O)(=O)c1ccc(Cl)cc1)CCCCc1cccnc1 (centres undefined),1390,100,–,–,–,–
